The text below walks through data of paper PMC10952593, “Synthetic cannabinoid receptor agonists are monoamine oxidase‐A selective inhibitors” (The Febs Journal, 2023).

Holding throughout (assay type): biochemical
Experiment [1] has as its target T1, MAO-A (Homo sapiens, UniProt P21397).
T1 construct: gene MAOA; FAD enzyme; PDB 2Z5X was only the docking model
T1 sequence (P21397 1-527): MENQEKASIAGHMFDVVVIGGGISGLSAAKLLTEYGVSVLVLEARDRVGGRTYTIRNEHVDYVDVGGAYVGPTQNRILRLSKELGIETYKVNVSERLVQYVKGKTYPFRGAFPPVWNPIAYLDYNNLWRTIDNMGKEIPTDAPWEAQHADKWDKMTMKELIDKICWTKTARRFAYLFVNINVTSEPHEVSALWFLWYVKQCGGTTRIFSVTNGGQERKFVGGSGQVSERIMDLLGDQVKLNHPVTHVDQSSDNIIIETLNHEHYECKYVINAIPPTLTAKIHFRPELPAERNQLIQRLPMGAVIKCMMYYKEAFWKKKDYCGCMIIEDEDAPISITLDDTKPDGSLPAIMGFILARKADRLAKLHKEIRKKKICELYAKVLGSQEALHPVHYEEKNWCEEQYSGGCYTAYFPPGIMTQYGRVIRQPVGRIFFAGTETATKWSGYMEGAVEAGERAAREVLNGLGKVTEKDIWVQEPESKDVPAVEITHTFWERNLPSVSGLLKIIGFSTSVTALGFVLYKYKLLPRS
The experiment is described as follows: UV/Vis, 4-hydroxyquinoline formation at […] nm.

In experiment [2] the target is T2, MAO-B (Homo sapiens, UniProt P27338).
T2 construct: gene MAOB; FAD enzyme; PDB 2V5Z was only the docking model
T2 sequence (P27338 2-520): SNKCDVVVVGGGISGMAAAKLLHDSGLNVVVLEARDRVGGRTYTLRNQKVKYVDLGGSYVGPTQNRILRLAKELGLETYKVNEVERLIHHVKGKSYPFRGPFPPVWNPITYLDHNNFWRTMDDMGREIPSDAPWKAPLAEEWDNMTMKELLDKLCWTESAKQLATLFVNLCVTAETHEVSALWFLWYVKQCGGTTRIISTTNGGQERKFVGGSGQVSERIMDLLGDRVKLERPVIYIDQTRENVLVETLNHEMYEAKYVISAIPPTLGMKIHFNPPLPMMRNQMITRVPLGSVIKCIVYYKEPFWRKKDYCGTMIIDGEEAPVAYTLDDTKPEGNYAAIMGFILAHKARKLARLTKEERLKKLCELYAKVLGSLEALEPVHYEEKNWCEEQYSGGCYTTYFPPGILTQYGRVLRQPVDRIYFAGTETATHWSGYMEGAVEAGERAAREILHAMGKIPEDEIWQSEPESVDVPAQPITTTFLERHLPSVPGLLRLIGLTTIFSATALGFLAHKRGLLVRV
Nature of the experiment: UV/Vis, benzaldehyde formation at […] nm. To be noted: 1.5 mM benzylamine, 30 μM MAO-B [sic], 50 mM HEPES pH 7.5, 0.5% Triton X-100, 25 °C; IC50 relative to fitted Imax (Hill-type fit); unreliable.

For experiment [3], the target named is T2, MAO-B. Nature of the experiment: UV/Vis, benzaldehyde formation at […] nm.
Experiment [4] has as its target T1, MAO-A. The experiment is described as follows: steady-state UV/Vis, 4-hydroxyquinoline at […] nm. To be noted: 20 μM MAO-A as printed, 50 mM HEPES pH 7.5, 0.5% Triton X-100, 25 °C.

Like-named read-outs stand apart in the source and are kept apart here.

In experiment [1], `COC(=O)C(NC(=O)c1cn(CCCCCF)c2ccccc12)C(C)(C)C` (stereo not shown) [compound 2, methyl‐2‐[[1‐(5‐fluoropentyl)indole‐3‐carbonyl]amino]‐3,3‐dimethyl‐butanoate] registered an IC50 of 77.1 ± 1.09 µM. Further, the “MAO-B / IC50” value in experiment [2] came to 690 ± 420 µM.
For `FCCCCCn1ccc2ccccc21` [compound 6, 1‐(5‐fluoropentyl)‐1H‐Indole], in experiment [3], inhibition was half-maximal at 650 ± 90 µM (IC50).
For `FCCCCCn1ncc2ccccc21` [compound 7, 1‐(5‐fluoropentyl)‐1H‐Indazole], in experiment [3], the midpoint of inhibition, the IC50, lay at 620 ± 20 µM.
Regarding `CCCCCn1ccc2ccccc21` [compound 8, 1‐pentyl‐1H‐Indole], the IC50 in experiment [3] amounted to 630 ± 30 µM.
As to `CCCCCn1ncc2ccccc21` [compound 9, 1‐pentyl‐1H‐Indazole], inhibition in experiment [3] was half-maximal at 540 ± 30 µM (IC50). This IC50 and that of the compound before are within 1.5-fold of each other.
Consider `Cn1ccc2ccccc21` [compound 10, 1‐methyl‐1H‐Indole], for which, in experiment [3], the IC50 was determined as 500 ± 20 µM.
`NCCC(=O)c1ccccc1N` [compound 12, kynuramine]: the Km in experiment [4] was found to be 140 ± 30 µM.
Regarding “N‐[[1‐(5‐fluoropentyl)‐1H‐indazol‐3‐yl]carbonyl]‐3‐methyl‐D‐valine methyl ester [compound 1]”, the IC50 in experiment [3] (1.5 mM benzylamine, 30 μM MAO-B [sic], 50 mM HEPES pH 7.5, 0.5% Triton X-100, 25 °C, IC50 relative to fitted Imax (Hill-type fit)) was 420 ± 190 µM; in experiment [1] (1 mM kynuramine, 20 μM MAO-A as printed, 50 mM HEPES pH 7.5, 0.5% Triton X-100, 25 °C, IC50 relative to fitted Imax (Hill-type fit)), 87.8 ± 4.38 µM.
